According to publication PMC7516806, “Hybrid Antimicrobial Peptide Targeting Staphylococcus aureus and Displaying Anti-infective Activity in a Murine Model” (Frontiers in Microbiology, 2020):

Columns and labels:
[1] = tested on: Staphylococcus aureus 29213; assay: Bacterial resistance development, serial passaging; type: cell-based; details: serial passage at sub-MIC for 15 days
Source text: Staphylococcus aureus 29213 was employed to assess the development of resistance by the serial passaging method, as previously described ([Lyu et al., 2017]). Minimum inhibitory concentration testing was first conducted for all of the compounds to be tested, as described above. S. aureus was harvested from 96-well plates of sub-MIC levels, diluted in MHB to a concentration of 2–7 × 10^5 CFU/mL, and then subjected to MIC determination for up to 15 days. The change in MIC values determines the development of antibiotic resistance in S. aureus.

[2] = tested on: Staphylococcus aureus 29213; assay: Propidium iodide uptake assay; type: cell-based; details: 0.5 × MIC, MIC and 2 × MIC; 10 μg/mL PI; ex 535 nm, em 617 nm
Experimental: Staphylococcus aureus 29213 was washed three times with buffer (5 mM HEPES, 5 mM glucose, pH 7.4) after the bacterium grew to the mid-log phase and then diluted to an OD600 = 0.05. Propidium iodide was then added to the final concentration of 10 μg/mL and incubated for 30 min at 4°C. The peptides were added to 12-well plates, which were filled with 2 mL of the cell suspension. An F-4500 fluorescence spectrophotometer (Hitachi, Japan) was employed to measure the fluorescence value at an excitation wavelength of 535 nm and an emission wavelength of 617 nm. Maximal augmentation was monitored, and the fluorescence of the mixture of bacteria and dye served as the blank control ([Morita et al., 2015]).

[3] = tested on: S. aureus 29213; assay: Cytoplasmic membrane depolarization, diSC3-5; type: cell-based, Staphylococcus aureus; details: 0.4 μM diSC3-5, 100 mM KCl, ex 622 nm, em 670 nm
Experimental: The dye diSC3-5 was employed to assay cytoplasmic membrane depolarization activities ([Shao et al., 2018]). S. aureus 29213 was diluted to an OD600 = 0.05 after washing three times with buffer (5 mM HEPES, 5 mM glucose, pH 7.4) when the bacteria grew to mid-log phase. Then, diSC3-5 at a final concentration of 0.4 μM was added into the medium and incubated for 1–1.5 h. The final concentration of 100 mM KCl was then added to the solution for 15 min. The peptides were added to 12-well plates, which were filled with 2 mL of cell suspension. An F-4500 fluorescence spectrophotometer (Hitachi, Japan) was employed to measure the fluorescence value at an excitation wavelength of 622 nm and an emission wavelength of 670 nm. Maximal augmentation was monitored, and the fluorescence of the mixture of bacteria and dye served as the blank control.

| Substance | change in MIC value, 15th day versus first day [1] [fold] | PI uptake (PI fluorescence) [2] | cytoplasmic membrane depolarization (diSC3-5 fluorescence) [3] |
| --- | --- | --- | --- |
| penicillin [reference compound] | 16 |  |  |
| melittin [reference compound] |  | rapidly disrupted the bacterial membrane and caused PI uptake | rapid fluorescence intensity increase |
